Reference: patent publication US5714485A, “Piperidine and hexahydropyridazine thrombin inhibitors” (Merck & Co., Inc., priority 1997, dated 1998)

Each compound was assayed against T1, human a-thrombin (Homo sapiens, UniProt P00734) (assay: In vitro assay for determining proteinase inhibition: human a-thrombin). Conditions: not given.
T1 construct: human a-thrombin
Assay type: biochemical
Procedure: Assays of human a-thrombin and bovine trypsin were performed at 25° C. in 0.05M TRIS buffer pH 7.4, 0.15M NaCl, 0.1% PEG. Trypsin assays also contained 1 mM CaCl2.
Concentrations of stock solutions of Z-GPR-afc were determined from measurements of absorbance at 380 nm of the 7-amino-4-trifluoromethyl coumarin produced upon complete hydrolysis of an aliquot of the stock solution by thrombin.
Activity assays were performed by diluting a stock solution of substrate at least tenfold to a final concentration ≥0. I Km into a solution containing enzyme or enzyme equilibrated with inhibitor. Times required to achieve equilibration between enzyme and inhibitor were determined in control experiments. Initial velocities of product formation in the absence (Vo) or presence of inhibitor (Vi) were measured. Assuming competitive inhibition, and that unity is negligible compared Km /[S], […] (where [S], [I], and e respectively represent the total concentrations, of substrate, inhibitor and enzyme), the equilibrium constant (Ki) for dissociation of the inhibitor from the enzyme can be obtained from the dependence of Vo /Vi on [I] shown in equation 1.
For `N[C@H]1CC[C@H](CNC(=O)[C@@H]2CCCN2C(=O)[C@@H](Cc2ccccc2)NS(=O)(=O)Cc2ccccc2)CC1`, the Ki was 0.4 nM.
`N[C@H]1CC[C@H](CNC(=O)[C@@H]2CCCN2C(=O)C2(O)c3ccccc3Sc3ccccc32)CC1` showed a Ki of 3 nM.

Same assay, conditions: Table 1, part headed Ki (NM); read-out: Ki vs thrombin
`N[C@H]1CC[C@H](CNC(=O)[C@@H]2CCCN2C(=O)[C@@H](Cc2ccccc2)NC(=O)OCc2ccncc2)CC1` was tested, and the Ki was 15 nM.
In the case of `CC(C)(C)OC(=O)N[C@@H](C(=O)N1CCC[C@H]1C(=O)NC[C@H]1CC[C@H](N)CC1)c1ccccc1`, the Ki is reported as 6.8 nM.
Work on `CC(C)(C)OC(=O)N[C@H](CC1CCCCC1)C(=O)N1CCC[C@H]1C(=O)NC[C@H]1CC[C@H](N)CC1` yielded a Ki of 12 nM.
`CC(C)(C)OC(=O)N[C@H](CCc1ccccc1)C(=O)N1CCC[C@H]1C(=O)NC[C@H]1CC[C@H](N)CC1` showed a Ki of 50 nM.
In the case of `N[C@H]1CC[C@H](CNC(=O)[C@@H]2CCCN2C(=O)[C@@H](Cc2c[nH]c3ccccc23)NC(=O)OCc2ccccc2)CC1`, the Ki is reported as 16 nM.
With `CC(C)(C)OC[C@@H](NC(=O)OC(C)(C)C)C(=O)N1CCC[C@H]1C(=O)NC[C@H]1CC[C@H](N)CC1` [BocNH, CH2 O-tBu] the Ki was 6 nM.
For `CC(C)(C)C[C@@H](NC(=O)OCc1ccccc1)C(=O)N1CCC[C@H]1C(=O)NC[C@H]1CC[C@H](N)CC1` [CbzNH, CH2 -tBu], the Ki was 2.3 nM.

Same assay, conditions: Table 1; read-out: Ki vs Thrombin
In the case of `N[C@H]1CC[C@H](CNC(=O)[C@@H]2CCCN2C(=O)C2Cc3ccccc3CN2)CC1` (some centres unmarked), the Ki is reported as 152 nM.
`CN[C@H](CC1CCCCC1)C(=O)N1CCC[C@H]1C(=O)NC[C@H]1CC[C@H](N)CC1` showed a Ki of 2.3 nM.
In the case of `N[C@H](Cc1ccc2ccccc2c1)C(=O)N1CCC[C@H]1C(=O)NC[C@H]1CC[C@H](N)CC1`, the Ki is reported as 27 nM.
`N[C@H](Cc1cccnc1)C(=O)N1CCC[C@H]1C(=O)NC[C@H]1CC[C@H](N)CC1` gave a Ki of 30 nM.
`N[C@H]1CC[C@H](CNC(=O)[C@@H]2CCCN2C(=O)[C@H](O)Cc2ccccc2)CC1` was tested, and the Ki was 63 nM.
`CC(=O)N[C@H](Cc1ccccc1)C(=O)N1CCC[C@H]1C(=O)NC[C@H]1CC[C@H](N)CC1` was tested, and the Ki was 170 nM.
For `CC(C)(C)OC(=O)N[C@H](Cc1ccccc1)C(=O)N1CCC[C@H]1C(=O)NC[C@H]1CC[C@H](N)CC1`, the Ki was 9.4 nM.
For `N[C@H]1CC[C@H](CNC(=O)[C@@H]2CCCN2C(=O)[C@@H](Cc2ccccc2)NC(=O)OCc2ccccc2)CC1`, the Ki was 3.7 nM.
Compound `CC(C)(C)OC(=O)N[C@@H](C(=O)N1CCC[C@H]1C(=O)NC[C@H]1CC[C@H](N)CC1)[C@@H](OC(C)(C)C)c1ccccc1` has a Ki of 8 nM.
Work on `N[C@H]1CC[C@H](CNC(=O)[C@@H]2CCCN2C(=O)[C@@H](CC2CCCCC2)NS(=O)(=O)CC(F)(F)F)CC1` yielded a Ki of 3 nM.
For `N[C@H]1CC[C@H](CNC(=O)[C@@H]2CCCN2C(=O)[C@@H](Cc2ccccc2)NCCc2ccccc2)CC1`, the Ki was 4 nM.
Work on `CC(C)(C)OC(=O)N[C@@H](C(=O)N1CCC[C@H]1C(=O)NC[C@H]1CC[C@H](N)CC1)C(OC(C)(C)C)c1ccccc1` (some centres unmarked) yielded a Ki of 200 nM.
With `CN[C@H](Cc1ccc(Cl)c(Cl)c1)C(=O)N1CCC[C@H]1C(=O)NC[C@H]1CC[C@H](N)CC1` [3,4-Cl2PhCH2, CH3 NH] the Ki was 2.9 nM.
`N[C@H]1CC[C@H](CNC(=O)[C@@H]2CCCN2C(=O)CCc2ccc(Cl)c(Cl)c2)CC1` [3,4-Cl2PhCH2, H] showed a Ki of 414 nM.
Compound `N[C@H](Cc1ccc(Cl)c(Cl)c1)C(=O)N1CCC[C@H]1C(=O)NC[C@H]1CC[C@H](N)CC1` [3,4-Cl2PhCH2, NH2] has a Ki of 1.5 nM.
Work on `N[C@H]1CC[C@H](CNC(=O)[C@@H]2CCCN2C(=O)CCC2CCCCC2)CC1` [C6 H11 CH2, H] yielded a Ki of 150 nM.
Compound `CC(=O)N1CCC[C@H]1C(=O)NC[C@H]1CC[C@H](N)CC1` [H, H] has a Ki greater than 10000 nM.
With `CS(=O)(=O)N[C@H](Cc1ccccc1)C(=O)N1CCC[C@H]1C(=O)NC[C@H]1CC[C@H](N)CC1` [PhCH2, CH3 SO2 NH] the Ki was 17 nM.
Work on `N[C@H]1CC[C@H](CNC(=O)[C@@H]2CCCN2C(=O)CCc2ccccc2)CC1` [PhCH2, H] yielded a Ki of 680 nM.
With `N[C@H](Cc1ccccc1)C(=O)N1CCC[C@H]1C(=O)NC[C@H]1CC[C@H](N)CC1` [PhCH2, NH2] the Ki was 3.4 nM.

Same assay, conditions: Table 2, lower part; head Ki(nM) without target; read-out: Ki
With `N[C@H]1CC[C@H](CNC(=O)[C@@H]2CCCN2C(=O)C2(O)c3ccccc3-c3ccccc32)CC1` the Ki was 1.5 nM.
`N[C@H]1CC[C@H](CNC(=O)[C@@H]2CCCN2C(=O)C2COc3ccccc3O2)CC1` (some centres unmarked) gave a Ki of 55 nM.
Work on `N[C@H]1CC[C@H](CNC(=O)[C@@H]2CCCN2C(=O)[C@H](NCC(=O)O)C(c2ccc(Cl)cc2)c2ccc(Cl)cc2)CC1` yielded a Ki of 0.13 nM.
In the case of `N[C@H]1CC[C@H](CNC(=O)[C@@H]2CCCN2C(=O)[C@H](NCC(=O)O)C(c2ccccc2)c2ccccc2)CC1` [drawing 39], the Ki is reported as 0.17 nM.
`C[C@@H](N[C@@H](C(=O)N1CCC[C@H]1C(=O)NC[C@H]1CC[C@H](N)CC1)C(c1ccccc1)c1ccccc1)C(=O)O` [drawing 41] was tested, and the Ki was 0.05 nM.

Same assay, conditions: Table 2; read-out: Ki vs thrombin
With `N[C@@H](C(=O)N1CCC[C@H]1C(=O)NC[C@H]1CC[C@H](N)CC1)C(c1ccccc1)c1ccccc1` the Ki was 0.12 nM.
`N[C@H]1CC[C@H](CNC(=O)[C@@H]2CCCN2C(=O)CC(c2ccccc2)c2ccccc2)CC1` gave a Ki of 2 nM.
In the case of `CC(C)(C)C[C@@H](NS(=O)(=O)Cc1ccccc1)C(=O)N1CCC[C@H]1C(=O)NC[C@H]1CC[C@H](N)CC1`, the Ki is reported as 0.4 nM.
Work on `N[C@H]1CC[C@H](CNC(=O)[C@@H]2CCCN2C(=O)[C@@H](Cc2ccccc2)NCC(=O)O)CC1` yielded a Ki of 1.3 nM.
`CC(C)(C)OC(=O)N[C@@H](C(=O)N1CCC[C@H]1C(=O)NC[C@H]1CC[C@H](N)CC1)C(c1ccccc1)c1ccccc1` showed a Ki of 0.102 nM.
`CC(C)(C)OC[C@@H](NS(=O)(=O)CC12CCC(CC1=O)C2(C)C)C(=O)N1CCC[C@H]1C(=O)NC[C@H]1CC[C@H](N)CC1` (some centres unmarked) showed a Ki of 0.05 nM.
`CC1(C)C2CCC1(CS(=O)(=O)N[C@H](CC1CCCCC1)C(=O)N1CCC[C@H]1C(=O)NC[C@H]1CC[C@H](N)CC1)C(=O)C2` (some centres unmarked) gave a Ki of 0.1 nM.

Same assay, conditions: compared with the other diastereomer
For `N[C@@H](C(=O)N1CCC[C@H]1C(=O)NC[C@H]1CC[C@H](N)CC1)C(c1ccccc1)c1ccccc1` (single isomer, unassigned) [Example 7 less polar diastereomer, trans-4-Aminocyclohexylmethyl L- and D-(3,3)-diphenyl alanyl-L-proline amide], the “relative activity of diastereomers in a thrombin inhibition assay” value was “more active isomer”.
For `N[C@H]1CC[C@H](CNC(=O)[C@@H]2CCCN2C(=O)[C@H](NS(=O)(=O)Cc2ccccc2)C(c2ccccc2)c2ccccc2)CC1` (single isomer, unassigned) [Example 9 less polar diastereomer, trans-4-Amino-cyclohexylmethyl N-(benzylsulfonyl)-D and L-3,3-diphenylalanyl-L-proline amide], the “relative activity of diastereomers in a thrombin inhibition assay” value was “more active isomer”.

The compounds below were run on thrombotic occlusion of the right carotid artery (assay: In vivo rat ferric chloride assay measuring thrombotic occlusion). Conditions: i.v. dose 1 μg/kg/min, FeCl3, rats.
Set-up: species or system Male Sprague-Dawley rats
Procedure: Applicants have conducted in vivo studies of the compounds claimed herein using the following rat ferric chloride assay.
In the assay used to determine in vivo activity of the thrombin inhibitors or the invention, Male Sprague-Dawley rats (body weights 200-350 grams) were anesthetized with dial-urethane solution (0.1 ml/100 gm body weight i.p.), and a lateral tail vein was cannulated with a 23 gauge needle connected to a 12 inch length of PE50 tubing. The tubing was attached to a 3-way valve by a tubing adapter. Saline (control) or test compound, as appropriate, was administered via the tail vein catheter. A tracheostomy was performed with a 0.75 inch length of PE205 tubing. The right carotid artery was exposed and a 1.3 mm diameter Doppler flow probe was placed on the vessel. Body temperature was maintained at 37° C. using a heat lamp.
Rats (8-10/group) were randomized to continuous intravenous infusions of saline or test compound administered via the tail vein at a rate of 0.028 ml/min. Treatment infusions were initiated 120 min before the placement of a 3 mm square piece of Whatman No. 1 filter paper saturated with 35% FeCl3 onto the exposed carotid artery distal to the flow probe. […] Time to occlusion was defined as the time from application of FeCl3 to thrombotic occlusion of the vessel.
In the case of `N[C@H]1CC[C@H](CNC(=O)[C@@H]2CCCN2C(=O)[C@H](NCC(=O)O)C(c2ccccc2)c2ccccc2)CC1` [drawing 47], the Incidence of occlusion is reported as 1/6.
`C[C@@H](N[C@@H](C(=O)N1CCC[C@H]1C(=O)NC[C@H]1CC[C@H](N)CC1)C(c1ccccc1)c1ccccc1)C(=O)O` [drawing 48] was tested, and the Incidence of occlusion was 1/6.

Same assay, conditions: i.v. dose 10 μg/kg/min, FeCl3, rats
For `N[C@H]1CC[C@H](CNC(=O)[C@@H]2CCCN2C(=O)[C@H](NCC(=O)O)C(c2ccccc2)c2ccccc2)CC1` [drawing 47], the Incidence of occlusion was 0/6.
`C[C@@H](N[C@@H](C(=O)N1CCC[C@H]1C(=O)NC[C@H]1CC[C@H](N)CC1)C(c1ccccc1)c1ccccc1)C(=O)O` [drawing 48] was tested, and the Incidence of occlusion was 0/6.
